Experimental data taken from ChEMBL document CHEMBL1914429, “Potent and selective 2-naphthylsulfonamide substituted hydroxamic acid inhibitors of matrix metalloproteinase-13” (Bioorg Med Chem Lett, 2011).

Experiments:
[1] = Clearance in rat at 5 mg/kg, po and 1 mg/kg, iv; type: ADME, organism-based; conditions: in vivo
[2] = AUC in rat at 5 mg/kg, po; type: ADME, organism-based; set-up: dose 5 mg/kg, route oral; conditions: plasma
[3] = biological target: 72 kDa type IV collagenase (Homo sapiens, UniProt P08253)
Sequence of 72 kDa type IV collagenase (P08253 whole entry): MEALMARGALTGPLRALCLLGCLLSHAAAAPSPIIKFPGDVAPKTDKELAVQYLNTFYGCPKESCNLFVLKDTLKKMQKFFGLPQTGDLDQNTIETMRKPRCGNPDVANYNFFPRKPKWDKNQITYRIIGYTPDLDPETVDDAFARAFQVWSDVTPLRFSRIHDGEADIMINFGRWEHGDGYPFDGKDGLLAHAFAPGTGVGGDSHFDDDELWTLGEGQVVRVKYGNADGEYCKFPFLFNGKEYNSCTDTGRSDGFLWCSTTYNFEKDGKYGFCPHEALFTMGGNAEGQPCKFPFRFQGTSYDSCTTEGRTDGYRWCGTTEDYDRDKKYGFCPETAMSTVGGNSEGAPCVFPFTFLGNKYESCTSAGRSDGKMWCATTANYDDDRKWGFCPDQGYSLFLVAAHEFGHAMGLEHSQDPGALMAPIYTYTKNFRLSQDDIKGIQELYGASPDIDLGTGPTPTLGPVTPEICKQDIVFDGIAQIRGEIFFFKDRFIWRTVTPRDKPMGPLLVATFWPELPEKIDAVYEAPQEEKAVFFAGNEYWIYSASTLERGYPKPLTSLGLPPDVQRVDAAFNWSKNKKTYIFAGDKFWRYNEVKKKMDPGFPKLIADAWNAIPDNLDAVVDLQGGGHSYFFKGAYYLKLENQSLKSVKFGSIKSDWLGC

[4] = Half life in rat at 5 mg/kg, po and 1 mg/kg, iv; type: ADME, organism-based; conditions: in vivo
[5] = Oral bioavailability in rat at 5 mg/kg; type: ADME, organism-based; conditions: in vivo

SMILES	clearance [1]	AUC [2]	IC50 [3]	half-life [4]	bioavailability [5]
CC(C)CCN([C@@H](C(=O)NO)C(C)C)S(=O)(=O)c1ccc2sccc2c1	118 mL/min/kg	1.5 µM·h	16 nM	–	–
COc1ccc(S(=O)(=O)N(CCC(C)C)[C@@H](C(=O)NO)C(C)C)cc1OC	–	–	30100 nM	–	–
CC(C)[C@H](C(=O)NO)N(CCN(C)C)S(=O)(=O)c1ccc2ccccc2c1	233 mL/min/kg	0.27 µM·h	–	–	–
CC(C)CCN([C@H](CO)C(=O)NO)S(=O)(=O)c1ccc2ccccc2c1	45 mL/min/kg	2.4 µM·h	–	–	–
CC(C)CCN([C@@H](C(=O)NO)C(C)C)S(=O)(=O)c1ccc2c(c1)OCCO2	–	–	3 nM	–	–
CC(C)CCN([C@@H](C(=O)NO)C(C)(C)C)S(=O)(=O)c1ccc2ccccc2c1	26.7 mL/min/kg	7.2 µM·h	–	–	–
CC(C)[C@H](C(=O)NO)N(Cc1ccncc1)S(=O)(=O)c1ccc2ccccc2c1	122 mL/min/kg	0.32 µM·h	–	–	–
CC(C)CCN([C@@H](C(=O)NO)C(C)C)S(=O)(=O)c1ccc2c(c1)CCO2	–	–	10 nM	–	–
CC(C)[C@H](C(=O)NO)N(Cc1cccnc1)S(=O)(=O)c1ccc2ccccc2c1	107 mL/min/kg	0.55 µM·h	–	–	–
CC(C)[C@H](C(=O)NO)N(CCc1ccccc1)S(=O)(=O)c1ccc2ccccc2c1	55 mL/min/kg	0.45 µM·h	–	–	–

Second part, the molecule after the results:

clearance [1]	AUC [2]	IC50 [3]	half-life [4]	bioavailability [5]	SMILES
91.7 mL/min/kg	0.13 µM·h	2050 nM	–	–	CC(C)CCN([C@@H](C(=O)NO)C(C)C)S(=O)(=O)c1ccc2ccccc2n1
–	–	308 nM	–	–	CC(C)CN([C@@H](C(=O)NO)C(C)C)S(=O)(=O)c1ccc2ccccc2c1
18.3 mL/min/kg	4.6 µM·h	–	–	–	CC(C)CCN([C@@H](C(=O)NO)C(C)C)S(=O)(=O)c1ccc2ncccc2c1
55 mL/min/kg	3.1 µM·h	–	–	–	CC(C)CCN([C@@H](C(=O)NO)C(C)O)S(=O)(=O)c1ccc2ccccc2c1 (stereo not given in full)
40 mL/min/kg	1.5 µM·h	–	5.7 h	23.8%	CC(C)CCN([C@@H](C(=O)NO)C(C)C)S(=O)(=O)c1ccc2ccccc2c1
